The OPERA property sets (Mansouri et al. 2018)

| Structure (SMILES) | logP |
| --- | --- |
| CN(C)C(=O)OCCCc1ccccc1 | 2.93 |
| CN(C)C(=O)OCCc1c[nH]c2ccccc12 | 2.54 |
| CN(C)C(=O)OCCc1ccccc1 | 2.4 |
| CCN(CC)C(=O)OCCc1c[nH]c2ccccc12 | 3.3 |
| CCC(CC)COC(=O)N(C)C | 2.87 |
| NC(=O)OCCc1c[nH]c2ccccc12 | 1.69 |
| CCN(CC)C(=O)OCc1ccccc1 | 2.93 |
| CCC(CC)COC(=O)N(CC)CC | 3.6 |
| NC(=O)OCCCc1cccnc1 | 0.46 |
| CCN(CC)C(=O)OCCc1ccccc1 | 3.2 |
| CNC(=O)OCc1ccccc1 | 1.68 |
| NC(=O)OCCCc1ccccc1 | 1.96 |
| CCN(CC)C(=O)OCCCc1ccccn1 | 2.36 |
| CCN(CC)C(=O)OCC(C)C | 2.82 |
| CN(C)C(=O)OCCCc1cccnc1 | 1.44 |
| NC(=O)OCCc1ccccc1 | 1.5 |
| CC(Cc1ccccc1)OC(=O)N(C)C (stereo not drawn) | 2.6 |
| CC(C)OC(=O)N(C)C | 1.38 |
